Laboratory results taken from ChEMBL document CHEMBL3804813, “Discovery and optimization of new benzofuran derivatives against p53-independent malignant cancer cells through inhibition of HIF-1 pathway” (Bioorg Med Chem Lett, 2016).
Blank lines part the entries; values can stand above or below the compound they belong to. Active and inactive are the calls of the source. No cut-off for these calls is given here.

Key:
[1] = Antiproliferative activity against human p53-null HCT116 cells assessed as growth inhibition after 72 hrs by MTT assay; format: functional, cell-based; details: HCT-116, 72 h
[2] = Antiproliferative activity against human HCT116 cells expressing wild type p53 assessed as growth inhibition after 72 hrs by MTT assay; format: functional, cell-based; details: HCT-116, 72 h
[3] = Antiproliferative activity against human MDA-MB-435S cells assessed as growth inhibition after 72 hrs by MTT assay; format: functional, cell-based
MCF7 [4] = assay: Cytotoxicity against human MCF7 cells co-transfected with hypoxia reporter plasmid p(HRE)3-Luc at 20 uM; format: cell-based; details: mcf7, 20 µM
[5] = target: Hypoxia-inducible factor 1-alpha (Homo sapiens) (UniProt Q16665); assay: Inhibition of HIF-1 (unknown origin) expressed in human MCF7 cells co-transfected with hypoxia reporter plasmid p(HRE)3-Luc at 10 uM measured under hypoxia condition after 24 hrs by dual-luciferase reporter assay; format: cell-based
MCF7 [6] = assay: Antiproliferative activity against human MCF7 cells assessed as growth inhibition after 72 hrs by MTT assay; format: functional, cell-based; details: MCF7, 72 h
[7] = Cell cycle arrest in human p53-null HCT116 -/- cells assessed as accumulation at G1-phase at 10 uM after 12 hrs by propidium iodide staining based flow cytometry (reference value: 27.78%); format: functional; details: HCT-116
HCT-116 [8] = assay: Induction of apoptosis in human p53-null HCT116 -/- cells assessed as early apoptotic cells at 10 uM after 48 hrs by Annexin V-FITC/propidium iodide staining based flow cytometry (reference value: 6.96%); format: functional
HCT-116 [9] = assay: Induction of apoptosis in human p53-null HCT116 -/- cells assessed as morphological change at 5 to 20 uM after 48 hrs by Annexin V-FITC/propidium iodide staining based flow cytometry; format: functional, cell-based
[10] = Cell cycle arrest in human p53-null HCT116 -/- cells assessed as accumulation at G2-phase at 20 uM after 12 hrs by propidium iodide staining based flow cytometry (reference value: 2.35%); format: functional; details: HCT-116
[11] = Cell cycle arrest in human p53-null HCT116 -/- cells assessed as accumulation at S-phase at 5 uM after 12 hrs by propidium iodide staining based flow cytometry (reference value: 69.57%); format: functional; details: HCT-116
HCT-116 [12] = assay: Induction of apoptosis in human p53-null HCT116 -/- cells assessed as viable cells at 5 uM after 48 hrs by Annexin V-FITC/propidium iodide staining based flow cytometry (reference value: 85.26%); format: functional; details: HCT-116, 48 h, read-out: Activity
[13] = target: Hypoxia-inducible factor 1-alpha (Homo sapiens) (UniProt Q16665); assay: Inhibition of HIF-1 (unknown origin) expressed in human MCF7 cells co-transfected with hypoxia reporter plasmid p(HRE)3-Luc at 20 uM measured under hypoxia condition after 24 hrs by dual-luciferase reporter assay; format: cell-based
[14] = Decrease in procaspase-3 expression level in human p53-null HCT116 -/- cells at 1 to 20 uM after 24 hrs by western blot analysis; format: functional, cell-based; details: HCT-116
[15] = target: Hypoxia-inducible factor 1-alpha (Homo sapiens) (UniProt Q16665); assay: Inhibition of HIF1 in human MCF7 cells assessed as reduction in VEGF mRNA expression after 24 hrs under hypoxia condition by real-time PCR analysis; format: cell-based
HCT-116 [16] = assay: Induction of apoptosis in human p53-null HCT116 -/- cells assessed as early apoptotic cells after 48 hrs by Annexin V-FITC/propidium iodide staining based flow cytometry; format: functional, cell-based
HCT-116 [17] = assay: Induction of apoptosis in human p53-null HCT116 -/- cells assessed as late apoptotic cells after 48 hrs by Annexin V-FITC/propidium iodide staining based flow cytometry; format: functional, cell-based
[18] = Cell cycle arrest in human p53-null HCT116 -/- cells assessed as accumulation at G2-phase at 10 uM after 12 hrs by propidium iodide staining based flow cytometry (reference value: 2.35%); format: functional; details: HCT-116
HCT-116 [19] = assay: Induction of apoptosis in human p53-null HCT116 -/- cells assessed as necrotic cells at 5 uM after 48 hrs by Annexin V-FITC/propidium iodide staining based flow cytometry (reference value: 4.67%); format: functional
HCT-116 [20] = assay: Induction of apoptosis in human p53-null HCT116 -/- cells assessed as viable cells at 10 uM after 48 hrs by Annexin V-FITC/propidium iodide staining based flow cytometry (reference value: 85.26%); format: functional; details: HCT-116, 48 h, read-out: Activity
HCT-116 [21] = assay: Induction of apoptosis in human p53-null HCT116 -/- cells assessed as late apoptotic cells at 20 uM after 48 hrs by Annexin V-FITC/propidium iodide staining based flow cytometry ( Rvb = 3.11%); format: functional
HCT-116 [22] = assay: Induction of apoptosis in human p53-null HCT116 -/- cells assessed as necrotic cells at 10 uM after 48 hrs by Annexin V-FITC/propidium iodide staining based flow cytometry (reference value: 4.67%); format: functional
[23] = Cell cycle arrest in human p53-null HCT116 -/- cells assessed as accumulation at G1-phase at 20 uM after 12 hrs by propidium iodide staining based flow cytometry (reference value: 27.78%); format: functional; details: HCT-116
HCT-116 [24] = assay: Induction of apoptosis in human p53-null HCT116 -/- cells assessed as viable cells at 20 uM after 48 hrs by Annexin V-FITC/propidium iodide staining based flow cytometry (reference value: 85.26%); format: functional; details: HCT-116, 48 h, read-out: Activity
HCT-116 [25] = assay: Induction of apoptosis in human p53-null HCT116 -/- cells assessed as necrotic cells at 20 uM after 48 hrs by Annexin V-FITC/propidium iodide staining based flow cytometry (reference value: 4.67%); format: functional
HCT-116 [26] = assay: Induction of apoptosis in human p53-null HCT116 -/- cells assessed as early apoptotic cells at 20 uM after 48 hrs by Annexin V-FITC/propidium iodide staining based flow cytometry (reference value: 6.96%); format: functional
[27] = Decrease in procaspase-9 expression level in human p53-null HCT116 -/- cells at 1 to 20 uM after 24 hrs by western blot analysis; format: functional, cell-based; details: HCT-116
HCT-116 [28] = assay: Induction of apoptosis in human p53-null HCT116 -/- cells assessed as late apoptotic cells at 5 uM after 48 hrs by Annexin V-FITC/propidium iodide staining based flow cytometry (reference value: 3.11%); format: functional
HCT-116 [29] = assay: Induction of apoptosis in human p53-null HCT116 -/- cells assessed as early apoptotic cells at 5 uM after 48 hrs by Annexin V-FITC/propidium iodide staining based flow cytometry (reference value: 6.96%); format: functional
[30] = Cell cycle arrest in human p53-null HCT116 -/- cells assessed as accumulation at G2-phase at 5 uM after 12 hrs by propidium iodide staining based flow cytometry (reference value: 2.35%); format: functional; details: HCT-116
[31] = Cell cycle arrest in human p53-null HCT116 -/- cells assessed as accumulation at S-phase at 10 uM after 12 hrs by propidium iodide staining based flow cytometry (reference value: 69.57%); format: functional; details: HCT-116
[32] = Cell cycle arrest in human p53-null HCT116 -/- cells assessed as accumulation at G1-phase after 12 hrs by propidium iodide staining based flow cytometry; format: functional; details: HCT-116
[33] = Cell cycle arrest in human p53-null HCT116 -/- cells assessed as accumulation at S-phase at 20 uM after 12 hrs by propidium iodide staining based flow cytometry (reference value: 69.57%); format: functional; details: HCT-116
[34] = Cell cycle arrest in human p53-null HCT116 -/- cells assessed as accumulation at G1-phase at 5 uM after 12 hrs by propidium iodide staining based flow cytometry (reference value: 27.78%); format: functional; details: HCT-116
HCT-116 [35] = assay: Induction of apoptosis in human p53-null HCT116 -/- cells assessed as late apoptotic cells at 10 uM after 48 hrs by Annexin V-FITC/propidium iodide staining based flow cytometry (reference value: 3.11%); format: functional

Hypoxia-inducible factor 1-alpha (Homo sapiens), sequence (Q16665 whole entry, looked up): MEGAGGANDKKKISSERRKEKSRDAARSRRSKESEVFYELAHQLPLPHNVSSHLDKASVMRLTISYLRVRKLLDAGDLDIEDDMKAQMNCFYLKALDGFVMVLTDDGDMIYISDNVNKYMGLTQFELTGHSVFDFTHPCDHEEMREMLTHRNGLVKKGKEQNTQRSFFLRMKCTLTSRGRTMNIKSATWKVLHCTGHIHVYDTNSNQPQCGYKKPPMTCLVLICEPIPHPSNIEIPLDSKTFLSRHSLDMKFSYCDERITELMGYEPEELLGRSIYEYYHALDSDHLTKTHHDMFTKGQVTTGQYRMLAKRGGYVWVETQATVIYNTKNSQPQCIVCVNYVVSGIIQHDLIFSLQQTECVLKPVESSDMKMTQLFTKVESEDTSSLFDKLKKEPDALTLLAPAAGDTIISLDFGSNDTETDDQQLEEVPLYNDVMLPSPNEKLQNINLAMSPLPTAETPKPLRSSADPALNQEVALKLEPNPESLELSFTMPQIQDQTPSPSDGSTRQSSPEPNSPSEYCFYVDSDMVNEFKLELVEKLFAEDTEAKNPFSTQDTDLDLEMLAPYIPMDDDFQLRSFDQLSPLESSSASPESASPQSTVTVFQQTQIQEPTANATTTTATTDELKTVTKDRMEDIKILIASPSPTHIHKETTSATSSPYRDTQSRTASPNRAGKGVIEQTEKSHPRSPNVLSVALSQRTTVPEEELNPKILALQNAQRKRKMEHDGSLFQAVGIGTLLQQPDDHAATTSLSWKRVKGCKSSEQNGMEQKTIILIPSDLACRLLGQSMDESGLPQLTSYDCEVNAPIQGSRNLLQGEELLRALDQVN

- inhibition [5]: 22.2%
- IC50 (MCF7 [6]): 5.67 µM
SMILES: CNCCNC(=O)c1oc2ccc(N(Cc3ccc(Cl)cc3)S(=O)(=O)c3ccc(Cl)cc3)cc2c1C
- IC50 [1]: 4.03 µM
- IC50 [2]: 1.81 µM
- IC50 [3]: 1.63 µM
- Activity (MCF7 [4]): Toxic

- inhibition [13]: 47.3%
- inhibition [15]: Dose-dependent effect
- IC50 (MCF7 [6]): 4.56 µM
SMILES: CNCCNC(=O)c1oc2ccc(N(Cc3ccccc3)S(=O)(=O)c3ccc(Cl)cc3)cc2c1C
- Activity [7]: 52.8%
- Activity (HCT-116 [8]): 55.86%
- Activity (HCT-116 [9]): Active
- Activity [10]: 8.1%
- IC50 [1]: 2.91 µM
- Activity [11]: 60.2%
- viability at 5 µM (HCT-116 [12]): 77.3%
- inhibition [14]: Active
- Activity (HCT-116 [16]): Dose-dependent effect
- Activity (HCT-116 [17]): Dose-dependent effect
- Activity [18]: 4.26%
- Activity (HCT-116 [19]): 0.5%
- viability at 10 µM (HCT-116 [20]): 28.1%
- Activity (HCT-116 [21]): 34.63%
- Activity (HCT-116 [22]): 1.05%
- IC50 [2]: 3 µM
- Activity [23]: 59.7%
- IC50 [3]: 4.71 µM
- viability at 20 µM (HCT-116 [24]): 3.07%
- Activity (HCT-116 [25]): 0.02%
- Activity (HCT-116 [26]): 62.28%
- inhibition [27]: Active
- Activity (HCT-116 [28]): 6.74%
- Activity (HCT-116 [29]): 15.42%
- Activity [30]: 3.6%
- Activity [31]: 42.9%
- Activity [32]: Dose-dependent effect
- Activity [33]: 32.2%
- Activity [34]: 36.2%
- Activity (HCT-116 [35]): 14.99%
